The assay concerns the target T1, human mAChR M1 (Homo sapiens, UniProt P11229).
T1 sequence (P11229 1-460): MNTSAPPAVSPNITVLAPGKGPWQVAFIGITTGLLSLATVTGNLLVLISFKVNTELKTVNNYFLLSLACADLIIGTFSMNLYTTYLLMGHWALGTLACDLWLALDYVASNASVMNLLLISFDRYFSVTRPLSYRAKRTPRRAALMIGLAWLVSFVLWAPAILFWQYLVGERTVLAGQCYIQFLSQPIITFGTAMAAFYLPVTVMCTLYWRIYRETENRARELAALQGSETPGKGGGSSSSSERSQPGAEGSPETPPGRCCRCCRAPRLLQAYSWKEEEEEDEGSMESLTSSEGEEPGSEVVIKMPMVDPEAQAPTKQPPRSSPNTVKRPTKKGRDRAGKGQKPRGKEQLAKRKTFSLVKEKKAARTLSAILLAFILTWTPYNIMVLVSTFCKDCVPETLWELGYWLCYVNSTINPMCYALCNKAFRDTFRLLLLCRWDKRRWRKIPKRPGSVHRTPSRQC
The assay is described as follows: mAChR M1 cell-based functional assay: calcium mobilization, positive allosteric modulator mode (increase in EC20 acetylcholine response). The conditions noted are these: for Emax: read-out: Human M1 Emax (%). Summed up: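 Calcium-flux assay in CHO-K1 cells stably expressing human M1, loaded with Fluo-4 AM (50 min, 37 °C) and read at 1 Hz. Compound (11-point, 1:3 series) was added at 4 s, EC20 acetylcholine at 144 s and EC80 at 230 s. PAM activity is the concentration-dependent rise in the EC20 response, fitted with a four-parameter logistic.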
(Calcium assays in cells follow changes in intracellular calcium, usually with a dye or a luminescent sensor.)

Where [1] appears, read: Table 1, mAChR M1 cell-based functional assay, PAM mode, species not given, read-out: EC50.
[2] abbreviates: Table 2, human M1, read-out: Human M1 EC50.

This is an account of results in US11111251B2, “Positive allosteric modulators of the muscarinic acetylcholine receptor M1” (Vanderbilt University, priority 2016, dated 2021).

Where two headings read alike, the source gives them in different places. Some results are limits rather than exact numbers.

One may read the EC50 as the concentration at which the effect is half-maximal. One may read the Emax as the maximal effect, on the per cent scale that the assay sets.

As for `Cc1ccc(Oc2cc(C(=O)NCC(C)(C)O)nc3ccsc23)cn1` [Compound 32, N-(2-hydroxy-2-methyl-propyl)-7-[(6-methyl-3-pyridyl)oxy]thieno[3,2-b]pyridine-5-carboxamide], the EC50 under setting [1] is more than 10 µM. In the case of `Cn1ccc(-c2ccc(Cc3cc(C(=O)NC4CC5(COC5)C4)nc4ccn(C)c34)cc2)n1` [Compound 475, 1-methyl-7-[[4-(1-methylpyrazol-3-yl)phenyl]methyl]-N-(2-oxaspiro[3.3]heptan-6-yl)pyrrolo[3,2-b]pyridine-5-carboxamide], the 50% effective concentration (EC50) under setting [2] was 0.183 µM. Moreover, the Emax (Table 2, human M1) was 83.5%.

Turning to `CO[C@@H]1CCCC[C@H]1NC(=O)c1cc(Cc2ccc(-c3coc(C)n3)cc2)c2sccc2n1` [Compound 169, N-[(1R,2R)-2-methoxycyclohexyl]-7-[[4-(2-methyloxazol-4-yl)phenyl]methyl]thieno[3,2-b]pyridine-5-carboxamide], under setting [2], the concentration for a half-maximal effect (EC50) was 1.36 µM. Also, the maximum response (Emax) (Table 2, human M1) worked out at 84.1%.

As for `Cn1cc(-c2ccc(Cc3cc(C(=O)N[C@@H]4CCCOC4)nc4ccsc34)cn2)cn1` [Compound 361, 7-[[6-(1-methylpyrazol-4-yl)-3-pyridyl]methyl]-N-[(3R)-tetrahydropyran-3-yl]thieno[3,2-b]pyridine-5-carboxamide], the 50% effective concentration (EC50) under setting [2] came to 0.114 µM. Further, the Emax (Table 2, human M1) is 86.9%. In the case of `Cn1ccc2nc(C(=O)N[C@H]3CCCCC[C@@H]3O)cc(Cc3ccc(-c4cscn4)cc3)c21` [Compound 456, N-[(1S,2S)-2-hydroxycycloheptyl]-1-methyl-7-[(4-thiazol-4-ylphenyl)methyl]pyrrolo[3,2-b]pyridine-5-carboxamide], the EC50 under setting [2] is 0.129 µM. Besides, for the setting “Table 2, human M1”, the Emax was 67.9%. The corresponding values for `COC1CC(NC(=O)c2cc(Cc3ccc(-c4csc(C)n4)cc3)c3sccc3n2)C1` (stereo not drawn) [Compound 180, N-(3-methoxycyclobutyl)-7-[[4-(2-methylthiazol-4-yl)phenyl]methyl]thieno[3,2-b]pyridine-5-carboxamide] are 3.3 µM and 72.1%. The corresponding values for `Cn1ncc2nc(C(=O)N[C@@H]3CC[C@H]3O)cc(Cc3ccc(-n4cccn4)cc3)c21` [Compound 496, N-[(1R,2R)-2-hydroxycyclobutyl]-1-methyl-7-[(4-pyrazol-1-ylphenyl)methyl]pyrazolo-[4,3-b]pyridine-5-carboxamide] are more than 10 µM and 65.7%. On the same counts, the results for `CC1CC(NC(=O)c2cc(Cc3ccc(-c4ccn(C)n4)nc3)c3c(ccn3C)n2)CC(C)O1` (stereo not drawn) [Compound 506, N-(2,6-dimethyltetrahydropyran-4-yl)-1-methyl-7-[[6-(1-methylpyrazol-3-yl)-3-pyridyl]methyl]pyrrolo[3,2-b]pyridine-5-carboxamide;] are 7.12 µM and 78.2%. In the case of `Cn1ccc(-c2ccc(Cc3cc(C(=O)NC[C@@H]4CCCO4)nc4ccsc34)cn2)n1` [Compound 414, 7-[[6-(1-methylpyrazol-3-yl)-3-pyridyl]methyl]-N-[[(2S)-tetrahydrofuran-2-yl]methyl]thieno[3,2-b]pyridine-5-carboxamide], the concentration giving a half-maximal response (EC50) under setting [2] was 0.703 µM. Besides, the Emax (Table 2, human M1) was 71.5%.

Consider `CC1(NC(=O)c2cc(Cc3ccc(-n4cccn4)cc3)c3sccc3n2)COC1` [Compound 276, N-(3-methyloxetan-3-yl)-7-[(4-pyrazol-1-ylphenyl)methyl]thieno[3,2-b]pyridine-5-carboxamide], for which, under setting [2], the half-maximal effective concentration (EC50) was found to be 5.5 µM. In addition, the maximal response (Emax) (Table 2, human M1) is 64.5%. On the same counts, the results for `Cc1csc2c(Cc3ccc(-c4ccn(C)n4)cc3)cc(C(=O)NCC3CCO3)nc12` (stereo not drawn) [Compound 310, 3-methyl-7-[[4-(1-methylpyrazol-3-yl)phenyl]methyl]-N-(oxetan-2-ylmethyl)thieno[3,2-b]pyridine-5-carboxamide] are 0.471 µM and 78.1%. As to `Cc1nc(-c2ccc(Cc3cc(C(=O)NC4CCCNC4=O)nc4ccsc34)cc2)co1` (stereo not drawn) [Compound 171, 7-[[4-(2-methyloxazol-4-yl)phenyl]methyl]-N-(2-oxo-3-piperidyl)thieno[3,2-b]pyridine-5-carboxamide], the EC50 under setting [2] came out at 0.373 µM. The Emax (Table 2, human M1) was determined as 93%. The corresponding values for `Cn1ccc2nc(C(=O)NC3CCOCC3)cc(Cc3ccc(-n4cccn4)cc3)c21` [Compound 455, 1-methyl-7-[(4-pyrazol-1-ylphenyl)methyl]-N-tetrahydropyran-4-yl-pyrrolo[3,2-b]pyridine-5-carboxamide] are 0.136 µM and 75.1%. Regarding `COCCNC(=O)c1cc(Oc2ccc(C)nc2)c2sccc2n1` [Compound 33, N-(2-methoxyethyl)-7-[(6-methyl-3-pyridyl)oxy]thieno[3,2-b]pyridine-5-carboxamide], the EC50 under setting [1] is more than 10 µM. With `O=C(N[C@@H]1CCOC[C@H]1O)c1cc(Cc2ccc(-n3cccn3)cc2)c2sccc2n1` [Compound 74, N-[(3S,4R)-3-hydroxytetrahydropyran-4-yl]-7-[(4-pyrazol-1-ylphenyl)methyl]thieno[3,2-b]pyridine-5-carboxamide], the EC50 under setting [2] is 0.0122 µM. Also, the Emax (Table 2, human M1) came to 84.9%. The corresponding values for `Cn1ccc(-c2ccc(Cc3cc(C(=O)N[C@H]4CCCC[C@@H]4O)nc4ccsc34)cn2)n1` [Compound 354, N-[(1S,2S)-2-hydroxycyclohexyl]-7-[[6-(1-methylpyrazol-3-yl)-3-pyridyl]methyl]thieno[3,2-b]pyridine-5-carboxamide] are 0.0148 µM and 64.2%. On the same counts, the results for `O=C(NCC1CCCCO1)c1cc(Cc2ccc(-c3nccs3)cc2)c2sccc2n1` (stereo not drawn) [Compound 375, N-(tetrahydropyran-2-ylmethyl)-7-[(4-thiazol-2-ylphenyl)methyl]thieno[3,2-b]pyridine-5-carboxamide] are more than 10 µM and 77.4%.

With `Cc1ccc(Cc2cc(C(=O)NC3CCOCC3)nc3c(C)csc23)cn1` [Compound 102, 3-methyl-7-[(6-methyl-3-pyridyl)methyl]-N-tetrahydropyran-4-yl-thieno[3,2-b]pyridine-5-carboxamide], the EC50 under setting [2] was found to be 2.7 µM. Also, for the setting “Table 2, human M1”, the maximal response (Emax) was found to be 82.5%. Take `Cc1nc(-c2ccc(Cc3cc(C(=O)N[C@H]4CCCC[C@@H]4O)nc4ccsc34)cc2)cs1` [Compound 194, N-[(1S,2S)-2-hydroxycyclohexyl]-7-[[4-(2-methylthiazol-4-yl)phenyl]methyl]thieno[3,2-b]pyridine-5-carboxamide]: the EC50 under setting [2] is 0.0596 µM. Further, the maximal response (Emax) (Table 2, human M1) turned out to be 80.7%. The corresponding values for `Cn1ccc(-c2ccc(Cc3cc(C(=O)N[C@H]4CCC[C@@H]4O)nc4ccsc34)cc2)n1` [Compound 253, N-[(1S,2S)-2-hydroxycyclopentyl]-7-[[4-(1-methylpyrazol-3-yl)phenyl]methyl]thieno[3,2-b]pyridine-5-carboxamide] are 0.144 µM and 74.5%. On the same counts, the results for `Cn1ccc(-c2ccc(Cc3cc(C(=O)NC4CC(F)C4)nc4ccn(C)c34)cn2)n1` (stereo not drawn) [Compound 510, N-(3-fluorocyclobutyl)-1-methyl-7-[[6-(1-methylpyrazol-3-yl)-3-pyridyl]methyl]pyrrolo[3,2-b]pyridine-5-carboxamide;] are 4.28 µM and 76.8%. The corresponding values for `O=C(NC12CC3CC(CC(O)(C3)C1)C2)c1cc(Cc2ccc(C(F)(F)F)nc2)c2sccc2n1` [Compound 95, N-(3-hydroxy-1-adamantyl)-7-[[6-(trifluoromethyl)-3-pyridyl]methyl]thieno[3,2-b]pyridine-5-carboxamide] are 3.13 µM and 34.2%.

Take `Cn1ccc(-c2ccc(Cc3cc(C(=O)NCC4CCN4)nc4ccsc34)cn2)n1` (stereo not drawn) [Compound 421, N-(azetidin-2-ylmethyl)-7-[[6-(1-methylpyrazol-3-yl)-3-pyridyl]methyl]thieno[3,2-b]pyridine-5-carboxamide]: under setting [2], the EC50 was determined as 0.422 µM. Further, the maximal effect (Emax) (Table 2, human M1) was determined as 66.9%. On the same counts, the results for `Cc1cc2nc(C(=O)N[C@H]3CCCC[C@@H]3O)cc(Cc3ccc(-n4cccn4)cc3)c2s1` [Compound 237, N-[(1S,2S)-2-hydroxycyclohexyl]-2-methyl-7-[(4-pyrazol-1-ylphenyl)methyl]thieno[3,2-b]pyridine-5-carboxamide] are 0.455 µM and 85.2%. `Cc1ccc(Oc2cc(C(=O)NC(CO)C3CC3)nc3ccsc23)cn1` (stereo not drawn) [Compound 30, N-(1-cyclopropyl-2-hydroxy-ethyl)-7-[(6-methyl-3-pyridyl)oxy]thieno[3,2-b]pyridine-5-carboxamide]: under setting [1], the EC50 is more than 10 µM. Take `Cc1nc(-c2ccc(Cc3cc(C(=O)N[C@@H]4CCOC4)nc4ccsc34)cc2)cs1` [Compound 183, 7-[[4-(2-methylthiazol-4-yl)phenyl]methyl]-N-[(3R)-tetrahydrofuran-3-yl]thieno[3,2-b]pyridine-5-carboxamide]: under setting [2], the 50% effective concentration (EC50) is 2.53 µM. Also, under “Table 2, human M1”, the Emax turned out to be 67.3%. On the same counts, the results for `Cc1csc2c(Cc3ccc(-n4cccn4)cc3)cc(C(=O)NC3CCOCC3)nc12` [Compound 115, 3-methyl-7-[(4-pyrazol-1-ylphenyl)methyl]-N-tetrahydropyran-4-yl-thieno[3,2-b]pyridine-5-carboxamide] are 1.05 µM and 86.2%.
